Patent US8658604B2, “Template-fixed beta-hairpin peptidomimetics with protease inhibitory activity” (Polyphor Ltd, priority 2005, dated 2014)
Like-named read-outs stand apart in the source and are kept apart here. Where a SMILES comes first, the peptide text is derived from it.

Key:
[1] = target: T1, CathepsinG, from human neutrophils (Homo sapiens, UniProt P08311); test: Enzymatic assay, cathepsin G; conditions: Cathepsin G IC50
T1 sequence (P08311 21-244): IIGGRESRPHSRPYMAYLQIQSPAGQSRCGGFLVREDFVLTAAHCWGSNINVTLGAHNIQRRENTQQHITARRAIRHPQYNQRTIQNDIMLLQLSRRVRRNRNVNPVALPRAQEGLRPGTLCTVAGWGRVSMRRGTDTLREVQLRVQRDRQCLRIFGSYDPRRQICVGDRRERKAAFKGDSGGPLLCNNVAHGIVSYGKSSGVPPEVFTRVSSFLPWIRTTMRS

[2] = target: Trypsin, from human pancreas (Homo sapiens, UniProt P07477); test: Enzymatic assay, trypsin; conditions: at 100 μM
[3] = target: Urokinase from human urine (Homo sapiens, UniProt P00749); test: Enzymatic assay, urokinase
[4] = test system: human red blood cells (hRBC); test: Hemolysis
HELA cells (Acc57) = test: Cytotoxicity assay (MTT reduction), HELA cells; assay type: cell-based
Method in brief: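 HeLa cells were grown for 24 h, then exposed to peptides at 12.5, 25 and 50 μM in triplicate for 48 h at 37 °C. MTT reduction was read at 595 nm and growth % calculated relative to time-zero wells. LC50 interpolated by linear trend at −50% growth, GI50 at 50%.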

Chymase, from human skin = target: T2, Chymase, from human skin (Homo sapiens, UniProt P23946); test: Enzymatic assay, chymase
T2 sequence (P23946 22-247): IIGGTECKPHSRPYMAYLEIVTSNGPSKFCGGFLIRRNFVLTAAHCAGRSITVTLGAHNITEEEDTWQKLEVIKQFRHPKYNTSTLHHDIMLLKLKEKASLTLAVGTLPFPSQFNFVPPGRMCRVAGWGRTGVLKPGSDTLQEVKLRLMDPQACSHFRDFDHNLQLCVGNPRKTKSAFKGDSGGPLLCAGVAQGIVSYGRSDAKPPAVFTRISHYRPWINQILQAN

[5] = test system: Tryptase, from human lung; test: Enzymatic assay, tryptase; conditions: at 100 μM
[6] = target: Chymotrypsin, from human pancreas (Homo sapiens, UniProt P17538); test: Enzymatic assay, chymotrypsin; conditions: at 100 μM
Chain of Chymotrypsin, from human pancreas (P17538 19-263): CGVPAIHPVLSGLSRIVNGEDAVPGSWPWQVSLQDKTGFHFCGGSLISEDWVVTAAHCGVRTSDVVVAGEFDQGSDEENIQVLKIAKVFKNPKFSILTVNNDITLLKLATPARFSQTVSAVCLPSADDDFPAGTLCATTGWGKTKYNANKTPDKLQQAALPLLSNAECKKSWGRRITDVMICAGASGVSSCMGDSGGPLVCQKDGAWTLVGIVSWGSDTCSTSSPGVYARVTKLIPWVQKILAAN

[7] = target: Thrombin, from Human Plasma (Homo sapiens, UniProt P00734); test: Enzymatic assay, thrombin
[8] = target: T3, Elastase from human neutrophils (Homo sapiens, UniProt P08246); test: Enzymatic assay, elastase
T3 sequence (P08246 30-267): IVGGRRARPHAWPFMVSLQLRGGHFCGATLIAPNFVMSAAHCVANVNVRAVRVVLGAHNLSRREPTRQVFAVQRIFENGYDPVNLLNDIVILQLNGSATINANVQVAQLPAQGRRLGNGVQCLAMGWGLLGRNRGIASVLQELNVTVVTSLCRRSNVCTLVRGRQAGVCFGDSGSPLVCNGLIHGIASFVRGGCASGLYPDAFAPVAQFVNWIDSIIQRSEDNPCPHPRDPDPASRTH

[9] = target: Coagulation Factor Xa, from uman plasma (Homo sapiens, UniProt P00742); test: Enzymatic assay, coagulation factor Xa
Chain of Coagulation Factor Xa, from uman plasma (P00742 235-488 limits assumed): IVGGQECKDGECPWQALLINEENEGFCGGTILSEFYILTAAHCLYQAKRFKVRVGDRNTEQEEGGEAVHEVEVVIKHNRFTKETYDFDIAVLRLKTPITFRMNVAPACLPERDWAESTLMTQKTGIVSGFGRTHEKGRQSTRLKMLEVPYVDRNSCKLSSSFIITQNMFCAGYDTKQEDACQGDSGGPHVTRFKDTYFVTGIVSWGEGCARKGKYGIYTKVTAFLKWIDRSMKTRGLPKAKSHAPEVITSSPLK
Chain of Coagulation Factor Xa, from uman plasma (P00742 41-179 limits assumed): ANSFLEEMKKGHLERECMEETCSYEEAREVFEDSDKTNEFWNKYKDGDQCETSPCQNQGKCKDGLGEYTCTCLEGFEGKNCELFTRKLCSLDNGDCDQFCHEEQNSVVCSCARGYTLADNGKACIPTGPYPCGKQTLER

Compound	IC50 [1] [µM]	Trypsin at 100 μM % [2] [%]	Urokinase at 100 μM % [3] [%]	Hemolysis at 100 μM % [4] [%]	Cytotoxicity LC50/GI50 Hela cells (HELA cells (Acc57); Hela cells) [µM]	Chymase at 100 μM % (Chymase, from human skin) [%]	Tryptase at 100 μM % [5] [%]	Chymotrypsin at 100 μM % [6] [%]	Thrombin at 100 μM % [7] [%]	IC50 ([8]; Elastase IC50) [µM]	FXa at 100 μM % [9] [%]	Cytotoxicity LC50/GI50 Hela cells (HELA cells (Acc57)) [µM]	Elastase at 100 μM % ([8]; at 100 μM (stated in cell instead of IC50)) [at %]	IC50 ([8]; read-out: Elastase IC50) [µM]
CC[C@H](C)[C@@H]1NC(=O)[C@@H]2CCCN2C(=O)[C@@H]2CCCN2C(=O)[C@H](CC(=O)O)NC(=O)[C@H](CO)NC(=O)[C@H](CCCCN)NC(=O)[C@H]([C@@H](C)O)NC(=O)[C@@H]2CSSC[C@H](NC1=O)C(=O)N[C@@H](CC(N)=O)C(=O)N1CCC[C@@H]1C(=O)N1CCC[C@H]1C(=O)N[C@@H](Cc1ccccc1)C(=O)N2 [Ex. 3] (HELM PEPTIDE1{F.C.T.K.S.D.P.P.I.C.N.[dP].P}$PEPTIDE1,PEPTIDE1,2:R3-10:R3|PEPTIDE1,PEPTIDE1,1:R1-13:R2$$$V2.0)	0.051	92	4	0	100	1	68	0	0	> 100	4			
CC[C@H](C)[C@@H]1NC(=O)[C@@H]2CCCN2C(=O)[C@@H]2CCCN2C(=O)[C@H](CC(=O)O)NC(=O)[C@H](CO)NC(=O)[C@H](CCCCN)NC(=O)[C@H]([C@@H](C)O)NC(=O)[C@@H]2CSSC[C@H](NC1=O)C(=O)N[C@@H](CO)C(=O)N1CCC[C@@H]1C(=O)N1CCC[C@H]1C(=O)N[C@@H](Cc1ccccc1)C(=O)N2 [Ex. 4] (HELM PEPTIDE1{F.C.T.K.S.D.P.P.I.C.S.[dP].P}$PEPTIDE1,PEPTIDE1,2:R3-10:R3|PEPTIDE1,PEPTIDE1,1:R1-13:R2$$$V2.0)	0.091	96	5.4	0	100	0	0	1.8	0	> 100	2.4			
CC[C@H](C)[C@@H]1NC(=O)[C@@H]2CCCN2C(=O)[C@@H]2CCCN2C(=O)[C@H](CC(=O)O)NC(=O)[C@H](CO)NC(=O)[C@H](CCCCN)NC(=O)[C@H]([C@@H](C)O)NC(=O)[C@H](CCC(=O)O)NC(=O)[C@H](CCCNC(=N)N)NC(=O)[C@@H]2CCCN2C(=O)[C@H]2CCCN2C(=O)[C@H](Cc2ccccc2)NC(=O)[C@H](CCCNC(=N)N)NC1=O [Ex. 7] (HELM PEPTIDE1{R.E.T.K.S.D.P.P.I.R.F.[dP].P}$PEPTIDE1,PEPTIDE1,1:R1-13:R2$$$V2.0)	0.091	41	1.1	0.2		13.4	1.5	12	0		11.7	100	1.5	
CC[C@H](C)[C@@H]1NC(=O)[C@@H]2CCCN2C(=O)[C@H]2CCCN2C(=O)[C@H](CCCNC(=N)N)NC(=O)[C@@H]2CSSC[C@H](NC1=O)C(=O)N[C@@H]([C@@H](C)O)C(=O)N[C@@H](CCCCN)C(=O)N[C@@H](CO)C(=O)N[C@@H](CC(=O)O)C(=O)N1CCC[C@H]1C(=O)N1CCC[C@H]1C(=O)N[C@@H](CC1CCCCC1)C(=O)N2 [Ex. 58] (HELM PEPTIDE1{I.C.T.K.S.D.P.P.[Cha].C.R.[dP].P}$PEPTIDE1,PEPTIDE1,2:R3-10:R3|PEPTIDE1,PEPTIDE1,1:R1-13:R2$$$V2.0)	0.0475	97	6.7	0	100	44.1		0	28		25			> 100
